Several values for one entry are separate records, joined by “and”; a condition that tells them apart may be missing. Equal values may be shown once.
Test system: Swiss mice, Sarcoma 180 sc, mean tumor weight T/C
Assay: NCI In Vivo Anticancer Drug Screen. Data for tumor model Sarcoma 180 (subcutaneous) in Swiss mice
Details: endpoint: mean tumor weight, higher = larger tumour
Method in brief: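 Antitumor activity is assessed in mice with transplantable tumors. Treated (T) and vehicle control (C) groups are compared on survival or tumor size.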

[1] = dose: 125.0 mg/kg/injection, schedule: Q01DX007 (ip), vehicle: saline
[2] = dose: 500.0 mg/kg/injection, schedule: Q01DX007 (ip), vehicle: saline
[3] = dose: 50.0 mg/kg/injection, schedule: Q01DX007 (ip), vehicle: carboxymethylcellulose (CMC)
[4] = dose: 125.0 mg/kg/injection, schedule: Q01DX007 (ip), vehicle: carboxymethylcellulose (CMC)
[5] = dose: 75.0 mg/kg/injection, schedule: Q01DX007 (ip), vehicle: carboxymethylcellulose (CMC)
[6] = dose: 2.5 mg/kg/injection, schedule: Q01DX007 (sc), vehicle: steriod suspending solution
[7] = dose: 5.0 mg/kg/injection, schedule: Q01DX007 (sc), vehicle: steriod suspending solution

Compound: Nc1nc2ncc(CNc3ccc(C(=O)NC(CCC(=O)O)C(=O)O)cc3)nc2c(=O)[nH]1 (stereo unspecified)
- T/C (dose: 6.31 mg/kg/injection, schedule: Q01DX007 (ip), vehicle: carboxymethylcellulose (CMC)): 84 % of control
- T/C (dose: 12.62 mg/kg/injection, schedule: Q01DX007 (ip), vehicle: carboxymethylcellulose (CMC)): 76 % of control
- T/C (dose: 25.25 mg/kg/injection, schedule: Q01DX007 (ip), vehicle: carboxymethylcellulose (CMC)): 56 % of control
- T/C (dose: 50.5 mg/kg/injection, schedule: Q01DX007 (ip), vehicle: carboxymethylcellulose (CMC)): 74 % of control

Compound: NC(=O)c1cn(C2OC(CO)C(O)C2O)c2ncnc(N)c12 (stereo unspecified)
- T/C (dose: 0.5 mg/kg/injection, schedule: Q01DX007 (ip), vehicle: carboxymethylcellulose (CMC)): 87 % of control

Compound: C[N+]1(CCC[N+]2(C)C[C@@H]3[C@H](C2)[C@@H]2C=C[C@H]3C2)CCOCC1 (stereo partly specified)
- T/C [1]: 95 % of control
- T/C [2]: 111 % of control

Compound: CO/[N+]([O-])=C\C(=O)N/C=C/C(=O)O
- T/C [3]: 79 % of control

Compound: Cc1cc(NC(=O)c2ccc(N)cc2)ccc1N=Nc1ccc(N=Nc2ccc3c(O)cc(S(=O)(=O)O)cc3c2)c2cc(S(=O)(=O)O)ccc12
- T/C (dose: 12.5 mg/kg/injection, schedule: Q01DX007 (ip), vehicle: water): 110 % of control
- T/C (dose: 25.0 mg/kg/injection, schedule: Q01DX007 (ip), vehicle: water): 97 % of control
- T/C (dose: 50.0 mg/kg/injection, schedule: Q01DX007 (ip), vehicle: water): 62 % of control

Compound: S=P(N1CCCCC1)(N1CC1)N1CC1
- T/C (dose: 55.0 mg/kg/injection, schedule: Q01DX007 (ip), vehicle: saline): 26 % of control
- T/C (dose: 84.0 mg/kg/injection, schedule: Q01DX007 (ip), vehicle: saline): 26 % of control
- T/C [1]: 14 % of control
- T/C (dose: 188.0 mg/kg/injection, schedule: Q01DX007 (ip), vehicle: saline): 8 % of control

Compound: CS(=O)(=O)OCCCCCOS(C)(=O)=O
- T/C (dose: 16.5 mg/kg/injection, schedule: Q#A X014 (ip), vehicle: methylcellulose (MC)): 54 % of control and 65 % of control
- T/C (dose: 37.5 mg/kg/injection, schedule: Q#A X014 (ip), vehicle: methylcellulose (MC)): 54 % of control
- T/C (dose: 56.5 mg/kg/injection, schedule: Q#A X014 (ip), vehicle: methylcellulose (MC)): 9 % of control

Compound: COC(=O)c1cc([N+](=O)[O-])cc([N+](=O)[O-])c1Cl
- T/C (dose: 6.0 mg/kg/injection, schedule: Q01DX007 (ip), vehicle: methylcellulose (MC)): 91 % of control
- T/C (dose: 12.0 mg/kg/injection, schedule: Q01DX007 (ip), vehicle: methylcellulose (MC)): 111 % of control
- T/C (dose: 25.0 mg/kg/injection, schedule: Q01DX007 (ip), vehicle: methylcellulose (MC)): 86 % of control

Compound: CN(C)NCCC#N
- T/C (dose: 15.0 mg/kg/injection, schedule: Q#A X014 (ip), vehicle: methylcellulose (MC)): 91 % of control
- T/C (dose: 22.5 mg/kg/injection, schedule: Q#A X014 (ip), vehicle: methylcellulose (MC)): 52 % of control
- T/C (dose: 33.5 mg/kg/injection, schedule: Q#A X014 (ip), vehicle: methylcellulose (MC)): 49 % of control
- T/C (dose: 50.0 mg/kg/injection, schedule: Q#A X014 (ip), vehicle: methylcellulose (MC)): 39 % of control

Compound: CNC(C)=O
- T/C [4]: 84 % of control
- T/C (dose: 250.0 mg/kg/injection, schedule: Q01DX007 (ip), vehicle: carboxymethylcellulose (CMC)): 90 % of control and 106 % of control
- T/C (dose: 500.0 mg/kg/injection, schedule: Q01DX007 (ip), vehicle: carboxymethylcellulose (CMC)): 71 % of control
- T/C (dose: 623.2 mg/kg/injection, schedule: Q01DX007 (ip), vehicle: carboxymethylcellulose (CMC)): 72 % of control
- T/C (dose: 779.0 mg/kg/injection, schedule: Q01DX007 (ip), vehicle: carboxymethylcellulose (CMC)): 75 % of control
- T/C (dose: 1038.66 mg/kg/injection, schedule: Q01DX007 (ip), vehicle: carboxymethylcellulose (CMC)): 69 % of control
- T/C (dose: 1558.0 mg/kg/injection, schedule: Q01DX007 (ip), vehicle: carboxymethylcellulose (CMC)): 58 % of control
- T/C (dose: 2000.0 mg/kg/injection, schedule: Q01DX007 (ip), vehicle: carboxymethylcellulose (CMC)): 23 % of control

Compound: Clc1ccccc1/C=C/C=C1c2ccccc2-c2ccccc21
- T/C (dose: 222.0 mg/kg/injection, schedule: Q01DX007 (ip), vehicle: other): 72 % of control
- T/C (dose: 222.0 mg/kg/injection, schedule: Q01DX007 (ip), vehicle: saline): 83 % of control
- T/C (dose: 333.0 mg/kg/injection, schedule: Q01DX007 (ip), vehicle: other): 78 % of control
- T/C (dose: 333.0 mg/kg/injection, schedule: Q01DX007 (ip), vehicle: saline): 95 % of control
- T/C (dose: 492.0 mg/kg/injection, schedule: Q01DX007 (ip), vehicle: saline): 56 % of control
- T/C (dose: 500.0 mg/kg/injection, schedule: Q01DX007 (ip), vehicle: other): 50 % of control
- T/C [2]: 79 % of control
- T/C (dose: 750.0 mg/kg/injection, schedule: Q01DX007 (ip), vehicle: other): 49 % of control
- T/C (dose: 1119.0 mg/kg/injection, schedule: Q01DX007 (ip), vehicle: saline): 58 % of control
- T/C (dose: 1679.0 mg/kg/injection, schedule: Q01DX007 (ip), vehicle: saline): 54 % of control

Compound: C[C@]12CC[C@@H]3c4ccc(OC5CCCCO5)cc4CC[C@H]3[C@@H]1CC[C@@H]2O (stereo partly specified)
- T/C (dose: 111.0 mg/kg/injection, schedule: Q01DX007 (ip), vehicle: steriod suspending solution): 55 % of control
- T/C (dose: 166.6 mg/kg/injection, schedule: Q01DX007 (ip), vehicle: steriod suspending solution): 20 % of control
- T/C (dose: 250.0 mg/kg/injection, schedule: Q01DX007 (ip), vehicle: steriod suspending solution): 24 % of control
- T/C (dose: 375.0 mg/kg/injection, schedule: Q01DX007 (ip), vehicle: steriod suspending solution): 17 % of control

Compound: CC1(C)CCC2(C(=O)O)CCC3=C(C(CCl)CC4C3(C)CCC3C4(C)CC(O)C(O)C3(C)C(=O)O)C2C1 (stereo unspecified)
- T/C (dose: 25.0 mg/kg/injection, schedule: Q01DX007 (ip), vehicle: carboxymethylcellulose (CMC)): 108 % of control
- T/C [3]: 80 % of control
- T/C [5]: 157 % of control
- T/C [4]: 70 % of control

Compound: NC(=O)c1ccccc1Nc1ccc([N+](=O)[O-])cc1[N+](=O)[O-]
- T/C (dose: 37.5 mg/kg/injection, schedule: Q01DX007 (ip), vehicle: carboxymethylcellulose (CMC)): 92 % of control
- T/C [5]: 67 % of control

Compound: CCCCOC(=O)C1(N)CCCC1
- T/C (dose: 60.0 mg/kg/injection, schedule: Q01DX007 (ip), vehicle: carboxymethylcellulose (CMC)): 72 % of control
- T/C (dose: 90.0 mg/kg/injection, schedule: Q01DX007 (ip), vehicle: carboxymethylcellulose (CMC)): 72 % of control
- T/C (dose: 135.0 mg/kg/injection, schedule: Q01DX007 (ip), vehicle: carboxymethylcellulose (CMC)): 33 % of control
- T/C (dose: 148.0 mg/kg/injection, schedule: Q01DX007 (ip), vehicle: saline): 54 % of control
- T/C (dose: 200.0 mg/kg/injection, schedule: Q01DX007 (ip), vehicle: carboxymethylcellulose (CMC)): 12 % of control
- T/C (dose: 202.0 mg/kg/injection, schedule: Q01DX007 (ip), vehicle: carboxymethylcellulose (CMC)): 33 % of control
- T/C (dose: 225.0 mg/kg/injection, schedule: Q01DX007 (ip), vehicle: saline): 33 % of control
- T/C (dose: 336.0 mg/kg/injection, schedule: Q01DX007 (ip), vehicle: saline): 11 % of control

Compound: CO[C@H]1C(=O)C[C@H]2[C@@H]3CC=C4C[C@@H](O)CC[C@]4(C)[C@H]3CC[C@]12C
- T/C [6]: 92 % of control
- T/C [7]: 101 % of control
- T/C (dose: 10.0 mg/kg/injection, schedule: Q01DX007 (sc), vehicle: steriod suspending solution): 89 % of control
- T/C (dose: 20.0 mg/kg/injection, schedule: Q01DX007 (sc), vehicle: steriod suspending solution): 94 % of control
- T/C (dose: 40.0 mg/kg/injection, schedule: Q01DX007 (sc), vehicle: steriod suspending solution): 93 % of control and 107 % of control
- T/C (dose: 80.0 mg/kg/injection, schedule: Q01DX007 (sc), vehicle: steriod suspending solution): 116 % of control and 117 % of control

Compound: CN(C)[C@@H]1C(=O)C(C(N)=O)=C(O)[C@@]2(O)C(=O)C3=C(O)c4c(O)cccc4C[C@H]3C[C@@H]12
- T/C (dose: 20.0 mg/kg/injection, schedule: Q#A X014 (ip), vehicle: other): 64 % of control
- T/C (dose: 30.0 mg/kg/injection, schedule: Q#A X014 (ip), vehicle: other): 61 % of control
- T/C (dose: 45.0 mg/kg/injection, schedule: Q#A X014 (ip), vehicle: other): 31 % of control

Compound: OC(CBr)C(O)C(O)C(O)CBr (stereo unspecified)
- T/C (dose: 25.0 mg/kg/injection, schedule: Q01DX007 (ip), vehicle: saline): 106 % of control
- T/C (dose: 50.0 mg/kg/injection, schedule: Q01DX007 (ip), vehicle: saline): 95 % of control and 117 % of control
- T/C (dose: 100.0 mg/kg/injection, schedule: Q01DX007 (ip), vehicle: saline): 104 % of control and 107 % of control
- T/C (dose: 400.0 mg/kg/injection, schedule: Q01DX007 (ip), vehicle: saline): 88 % of control

Compound: CO[C@H]1CC[C@@]2(C)C(=CC[C@H]3[C@@H]4C[C@H](O)C[C@@]4(C)CC[C@@H]32)C1
- T/C [6]: 105 % of control
- T/C [7]: 80 % of control
